Measured values published in paper PMC2527638 (Toxicological Sciences, 2008).

What was measured:
ERβ = ERβ (Homo sapiens, UniProt Q92731); experiment: ERβ-specific U2OS reporter gene assay; assay type: cell-based
ERα = molecular target: T1, ERα (Homo sapiens, UniProt P03372); experiment: ERα-specific U2OS reporter gene assay; assay type: cell-based
T1 sequence (P03372 1-595): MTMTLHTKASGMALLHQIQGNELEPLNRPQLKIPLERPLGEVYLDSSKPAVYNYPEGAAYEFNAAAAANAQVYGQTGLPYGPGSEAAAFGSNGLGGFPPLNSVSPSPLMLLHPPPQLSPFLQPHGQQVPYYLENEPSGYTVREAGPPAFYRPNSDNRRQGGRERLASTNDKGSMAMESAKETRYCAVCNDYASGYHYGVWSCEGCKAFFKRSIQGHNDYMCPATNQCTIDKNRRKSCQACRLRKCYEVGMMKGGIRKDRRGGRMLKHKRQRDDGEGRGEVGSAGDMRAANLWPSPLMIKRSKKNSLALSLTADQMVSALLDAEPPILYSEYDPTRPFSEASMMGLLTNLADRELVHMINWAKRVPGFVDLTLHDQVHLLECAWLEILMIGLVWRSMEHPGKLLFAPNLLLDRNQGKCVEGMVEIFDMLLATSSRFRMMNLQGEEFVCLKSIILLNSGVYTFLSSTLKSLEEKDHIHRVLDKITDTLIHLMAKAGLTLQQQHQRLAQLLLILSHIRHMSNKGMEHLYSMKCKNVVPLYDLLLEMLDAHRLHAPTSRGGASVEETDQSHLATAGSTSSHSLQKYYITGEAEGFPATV

FLAG-ERβ = assay type: cell-based, human; conditions: in the presence of 1000 ng tetracycline/ml, 24 h

ERβ, sequence (Q92731 whole entry): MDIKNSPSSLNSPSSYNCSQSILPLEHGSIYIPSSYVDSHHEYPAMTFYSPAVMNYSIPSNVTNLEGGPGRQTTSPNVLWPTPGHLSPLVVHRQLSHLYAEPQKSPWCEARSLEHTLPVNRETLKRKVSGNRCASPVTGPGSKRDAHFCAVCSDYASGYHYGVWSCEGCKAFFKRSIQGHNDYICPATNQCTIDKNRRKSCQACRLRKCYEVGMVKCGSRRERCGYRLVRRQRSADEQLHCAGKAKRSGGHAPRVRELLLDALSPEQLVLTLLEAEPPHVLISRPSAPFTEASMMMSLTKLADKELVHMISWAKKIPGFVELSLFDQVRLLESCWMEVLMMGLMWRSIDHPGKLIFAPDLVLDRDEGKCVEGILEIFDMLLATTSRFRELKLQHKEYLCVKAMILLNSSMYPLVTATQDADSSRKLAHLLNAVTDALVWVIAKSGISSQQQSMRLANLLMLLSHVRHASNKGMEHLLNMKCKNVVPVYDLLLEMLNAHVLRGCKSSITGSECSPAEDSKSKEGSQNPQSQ

Row | Transcription of the reporter gene in the ERβ-U2OS-Luc cell line (ERβ) | EC50 (ERα) | SMILES | FLAG-ERβ protein expression (FLAG-ERβ)
1 | unable to induce any transcription | 140 pM | CCCc1c(-c2ccc(O)cc2)nn(-c2ccc(O)cc2)c1-c1ccc(O)cc1 [PPT, 4,4′,4″-(4-propyl-[1H]pyrazole-1,3,5-triyl) Tris-phenol] | –
2 | – | – | CN(C)[C@@H]1C(O)=C(C(N)=O)C(=O)[C@@]2(O)C(O)=C3C(=O)c4c(O)cccc4[C@@](C)(O)[C@H]3C[C@@H]12 [tetracycline, Tetracycline] | No detectable FLAG-ERβ protein
